Experimental findings from article PMC7699524, “Assessing the Intestinal Permeability and Anti-Inflammatory Potential of Sesquiterpene Lactones from Chicory” (Nutrients, 2020) are described below.

One data set deals with Caco-2 cells. Nature of the data set: Permeability across Caco-2 monolayer (apical concentration by LC-MS). The note with it: Caco-2 monolayer. On the procedure: For intestinal permeability assessments of pure SLs, Caco-2 cells were seeded in 12 mm Transwell® inserts (polyester membrane, 0.4 μm pore size, Corning Costar Corp., NY, USA) at a density of 1.0 × 10^5 cell/cm^2. Cells were allowed to grow and differentiate to a confluent monolayer for 21 days postseeding with medium change three times per week. This mimics the apical and basolateral sides of the intestinal mucosa. Before the permeability assay, cells were washed with Hank’s balanced salt solution (HBSS) (Gibco, Life Technologies, Paisley, UK), and pure SLs in HBSS were added to the apical side for 4 h at the noncytotoxic concentration of 10 μM, while the basolateral well was replaced by HBSS. The fluorescent marker fluorescein (2.7 µM) was used as control, having been submitted to the same protocol as the SLs. Cells were submitted to an orbital shaking of 125 rpm (Ohaus, Shanghai, China), and samples from the basolateral side were collected after 15 min, 30 min, and then every hour until the end of the assay, and each time the retrieved volume was replaced by fresh HBSS to maintain sink conditions. After the 4 h assay, both apical and basolateral contents were collected, the cells were washed with PBS followed by culture medium, and culture medium was added to both compartments for 24 h to assess monolayer recovery. All samples were stored at −80 °C until LC-MS analysis.
Transepithelial electrical resistance (TEER) of all monolayers was monitored before and during experiments, and 24 h after the assay, to ensure their integrity using an EVOM™ voltmeter (WPI, Berlin, Germany). Before each experiment, TEER was measured and only monolayers with a TEER value higher than 500 Ω cm^2 were used. Experiments were done in triplicate.
Ultra High Performance Liquid Chromatography (UHPLC) separations were performed with a Dionex U3000 UHPLC coupled with a U3000 Photo Diode Array (PDA) and an LTQ-Orbitrap XL Mass Spectrometry (MS) system (Thermo-Fisher Ltd., Hemel Hempstead, UK). The MS and PDA systems were tuned and calibrated according to the manufacturers recommended procedures. The UHPLC was operated under Xcalibur and Chromeleon software (Thermo-Fisher Ltd. UK). A flow rate of 300 µL/min was applied, the column and guard (Synergi C18 Hydro-RP 80 Ä, 150 × 2.0 mm, 4 µm particle size; Phenomenex Ltd. U.K.) were maintained at a temperature of 30 °C. The solvent system compositions were, A: HPLC grade water (J.T. Baker, Scientific Chemical Supplies Ltd. UK), and solvent B: HPLC grade acetonitrile (J.T. Baker, Scientific Chemical Supplies Ltd. UK), both acidified with 0.1% MS grade formic acid (Ultima, Fisher Scientific, UK). A sample injection volume of 10 µL was employed in partial-loop mode. The gradient program was as follows: hold 2% B 0–2 min, 2–5% B 2–5 min, 5–45% B 5–25 min, 45–100% B 25–35 min, hold 100% B 35–38 min, 100–2% B 38–39 min, hold 2% B 39–44 min. Autosampler syringe and line washes were performed with 2:8 HPLC grade water: acetonitrile (J.T. Baker, Scientific Chemical Supplies Ltd., UK). The HPLC column eluent was first monitored by the U3000 PDA detector where spectra were collected in wavelength/absorbance mode from 200–600 nm. Additionally, three channel set points were employed, Channel A 210 nm, Channel B 260 nm, Channel C 320 nm. Spectra were collected with a filter bandwidth of 8 nm and wavelength step of 1 nm, the scan rate was 5 Hz.
The UHPLC eluent was next transferred to a Thermo LTQ-Orbitrap XL mass spectrometry system operated under Xcalibur (Thermo-Fisher Ltd. UK). For the first two minutes of analysis the UHPLC eluent was diverted to waste, from two to 39 min the eluent was directed to the MS detector, before being diverted back to waste between 39–44 min. Mass spectra were collected in centroid mode with a primary full scan event (m/z 100–1000) at a mass resolution of 30,000 (FWHM defined at m/z 400) within the Fourier Transform (FT) detector.

The next data set relates to calcineurin-Crz1 pathway. Nature of the data set: β-Galactosidase CDRE-lacZ yeast reporter assay of Crz1 activation. Type of data set: cell-based, S. cerevisiae. The note with it: Saccharomyces cerevisiae. On the procedure: Cultures at OD600= 0.5 ± 0.05 were diluted to OD600= 0.1 ± 0.01, transferred to 96-well microplate and challenged with the highest nontoxic concentration previously determined for each compound to investigate their putative inhibitory effect towards the calcineurin-responsive zinc finger (Crz1) activation. Measurements of β-galactosidase activity driven by the calcineurin-dependent response element (CDRE) regulated lacZ reporter gene allowed the quantitative assessment of the capacity of each compound to inhibit the activation of Crz1. FK506 (Cayman Chemicals, Ann Arbor, MI, USA) was used as a positive control at a final concentration of 12.5 μM. After 90 min of incubation with the respective compounds at 30 °C under orbital shaking, MnCl2 (Merck, Saint Louis, MO, USA) was added at a final concentration of 3 mM. After 90 min of incubation under the same conditions, OD600 of cultures were recorded, 10 μL of cell suspensions were transferred to a new 96-well plate followed by addition of 20 μL Y-PER cell lysis reagent (ThermoFisher Scientific), and the plates were incubated for 20 min at 37 °C without agitation. 240 μL of LacZ buffer (8.5 g/L Na2HPO4 (ROTH), 5.5 g/L NaH2PO4.H2O (Merck), 0.75 g/L KCl (Panreac), 0.246 g/L MgSO4.7H2O (Merck) containing […] o-nitrophenyl β-D-galactopyranoside (ONPG) (Sigma–Aldrich®—Poole, Dorset, UK) was added to each well, and plates were incubated at 30 °C for 2 h. The OD420 and OD550 were monitored using a Biotek Power Wave XS Microplate Spectrophotometer (Biotek® Instruments, Winooski, VT, USA). The results were expressed as Miller units (MU), applying the following equation, where V = volume of culture assayed in mL; t = reaction time in minutes: Miller unit = 1000 × (OD420 − 1.75 × OD550)/(t × V × OD600)(1)

A further data set deals with Crz1-GFP. Nature of the data set: Fluorescence microscopy of Crz1-GFP nuclear accumulation. The class given is cell-based, S. cerevisiae. As to conditions: 3.6 µM, then 3 mM MnCl2; YAA3 cells; MnCl2 only 55.6%. On the procedure:
YAA3 cells were treated with 3.6 µM of 11β,13-dihydrolactucin or 12.5 µM of FK506 for 90 min, followed by incubation with or without 3 mM MnCl2 for further 90 min. On the last 10 min of incubation, 10 µg/mL of Hoechst 33,342 (Sigma) nuclear dye were added. Cells were washed and resuspended in 5 µL of 1,4-Diazabicyclo[2.2.2]octane (DABCO, triethylenediamine) DABCO solution (200 mM DABCO in 75% (v/v) glycerol, 25% (v/v) PBS) (Sigma-Aldrich). The preparations were monitored for GFP fluorescence as previously described using a Zeiss Imager Z2 (Zeiss, Germany) fluorescence microscope. Photographs were taken with an Axiocam 506 mono (Zeiss). Three images were taken and analyzed for each sample, each one containing ≈ 600 individual cells. Images were analyzed using Fiji-ImageJ 1.53f (NIH, Bethesda, MD, USA).

The subject of data set [1] is Crz1 target genes PMR1 and GSC2. Nature of the data set: qRT-PCR of Crz1 target genes. The class given is cell-based, S. cerevisiae. As to conditions: 3.6 µM, 3 mM MnCl2, qPCR. On the procedure:
The qRT-PCR analyses were performed as previously described. Briefly, total RNA was extracted using the RNeasy Mini kit (QIAGEN). After cleaning, 4 μg of total RNA was used for reverse-transcription with SuperScript™ II Reverse Transcriptase (Invitrogen). The qRT-PCR was performed in a QuantStudio™ 5 (Applied Biosystems), using SensiFAST™ SYBR Lo-ROX Kit (Bioline) to evaluate expression of the PMR1 (‘5-[…]-3′; 5′-[…]-3′) (GeneID: 852709), and GSC2 (5′-[…]-3′; 5′-[…]-3′) (GeneID: 852920) genes. Both ACT1 (5′-GATCATTGCTCCTCCAGAA-3′; 5′-[…]-3′) and PDA1 (5′-[…]-3′; 5′-[…]-3′) were used as reference genes. The results were expressed as relative mRNA expression levels relative to activation condition (mRNA levels a.u.) of at least three independent biological replicates ± SEM.
A general note: Quantitative PCR measures a nucleic acid by following its amplification.

For `CC1=C2C(=O)C=C(CO)C2C2OC(=O)C(C)C2C(O)C1` (stereo not drawn) [11β,13-dihydrolactucin], the “% of Decrease in SL Concentration in the Apical Side (t = 4h)” value with Caco-2 cells (10 µM apical, 4 h vs t = 0 h) turned out to be 8.7%. Also, the “SL conjugates with cysteine in the apical side after 4 h” value with Caco-2 cells (LC-MS) was “not detected”. Besides, the “Concentration of SL (Apical Side) t = 4 h” value in the data set on Caco-2 cells (SL added at 10 µM apical, after 4 h) was 8.3 ± 1.4 µM. For the same compound, the “Concentration of SL (Apical Side) t = 0 h” value with Caco-2 cells (SL added at 10 µM apical, before experiment) amounted to 9.1 ± 1.3 µM. Besides, in the data set on calcineurin-Crz1 pathway (read-out: Calcineurin-Crz1 Inhibition (%) ± SD, 12.5 µM, MnCl2 3 mM activation, strain YAA5), the inhibition at 12.5 µM turned out to be 43 ± 8%. Besides, the concentration for half-maximal inhibition (IC50) with calcineurin-Crz1 pathway (read-out: IC50 for Crz1 inhibition) was 2350 ± 1450 nM. Moreover, the inhibition at 3.6 µM in the data set with calcineurin-Crz1 pathway (read-out: Inhibition of Crz1 activation (dose response assay), 3.6 µM, MnCl2 activation) was not above 54%. In addition, the “Percentage of cells with nuclear Crz1-GFP” value with Crz1-GFP stood at 21%. In data set [1], the “GSC2 mRNA expression” value is on record as “downregulated” and the “PMR1 mRNA expression” value is given as “downregulated”.

Broadly, the inhibition is the change of the read-out against control, counted positive when it falls. By IC50 is commonly meant the concentration that gives 50% inhibition.
